# Biological target: Prothrombin (Homo sapiens, UniProt P00734)
# Assay: Inhibitory activity against human thrombin
row,SMILES,IC50 [µM]
1,N=C(N)c1ccc(CNC(=O)CC2OCCN(Nc3ccccc3)C2=O)cc1 (stereo not given),34.4
2,N=C(N)c1ccc(CNC(=O)CC2OCCN(NS(=O)(=O)c3ccc(F)cc3F)C2=O)cc1 (stereo not given),8.14
3,N=C(N)c1ccc(CNC(=O)C[C@H]2OCCN(NCC(=O)c3ccccc3)C2=O)cc1,> 133
4,N=C(N)c1ccc(CNC(=O)C[C@H]2OCCN(NCc3ccccc3)C2=O)cc1,13.6
5,N=C(N)c1ccc(CNC(=O)C[C@@H]2OCCN(NCCc3ccccc3)C2=O)cc1,1.79
6,CC(C)(C)OC(=O)NN1CCO[C@H](CC(=O)NCc2ccc(C(=N)N)cc2)C1=O,54.7
7,N=C(N)c1ccc(CNC(=O)CC2OCCN(NS(=O)(=O)c3ccc4c(c3)CCO4)C2=O)cc1 (stereo not given),0.486
8,CC(C)OC(=O)NN1CCO[C@H](CC(=O)NCc2ccc(C(=N)N)cc2)C1=O,80.6
9,Cc1cc(S(=O)(=O)NN2CCOC(CC(=O)NCc3ccc(C(=N)N)cc3)C2=O)c(C)cc1Cl (stereo not given),0.164
10,COc1ccc(OC)c(S(=O)(=O)NN2CCOC(CC(=O)NCc3ccc(C(=N)N)cc3)C2=O)c1 (stereo not given),0.13
11,N=C(N)c1ccc(CNC(=O)C[C@@H]2OCCN(NCc3ccccc3)C2=O)cc1,10.6
12,N=C(N)c1ccc(CNC(=O)C[C@@H]2OCCN(NCCCc3ccccc3)C2=O)cc1,4.74
13,N=C(N)c1ccc(CNC(=O)CC2OCCN(N(Cc3ccccc3)Cc3ccccc3)C2=O)cc1 (stereo not given),19.8
14,Cc1ccc(CCNN2CCOC(CC(=O)NCc3ccc(C(=N)N)cc3)C2=O)cc1 (stereo not given),0.961
15,N=C(N)c1ccc(CNC(=O)CC2OCCN(Nc3ccc(-c4ccccc4)cc3)C2=O)cc1 (stereo not given),4.88
16,N=C(N)c1ccc(CNC(=O)C[C@@H]2OCCN(NS(=O)(=O)Cc3ccccc3)C2=O)cc1,9.15
17,N=C(N)c1ccc(CNC(=O)C[C@H]2OCCN(NS(=O)(=O)Cc3ccccc3)C2=O)cc1,36.8
18,N=C(N)c1ccc(CNC(=O)C[C@H]2OCCN(NCCCc3ccccc3)C2=O)cc1,45.4
19,N=C(N)c1ccc(CNC(=O)C[C@H]2OCCN(NC(=O)c3ccc(N)cc3)C2=O)cc1,150
20,N=C(N)c1ccc(CNC(=O)C[C@H]2OCCN(N(CCCc3ccccc3)CCCc3ccccc3)C2=O)cc1,36.2
21,N=C(N)c1ccc(CNC(=O)C[C@H]2OCCN(NCCc3ccccc3)C2=O)cc1,35.6
22,N=C(N)c1ccc(CNC(=O)CC2OCCN(Nc3cccc(N)c3)C2=O)cc1 (stereo not given),> 32
23,N=C(N)c1ccc(CNC(=O)C[C@H]2OCCN(NC(=O)c3ccccc3)C2=O)cc1,106
24,Cc1ccc(C)c(S(=O)(=O)NN2CCOC(CC(=O)NCc3ccc(C(=N)N)cc3)C2=O)c1 (stereo not given),0.247
25,N=C(N)c1ccc(CNC(=O)C[C@H]2OCCN(NS(=O)(=O)c3ccccc3)C2=O)cc1,37.7

# From ChEMBL document CHEMBL1144900, “Synthesis and SAR of thrombin inhibitors incorporating a novel 4-amino-morpholinone sscaffold: analysis of X-ray crystal structure of enzyme inhibitor complex” (J Med Chem, 2003)
